We go through 85 compounds from a melting point compilation (Tetko et al.; mined from patent text by program, amines drawn as free bases though some values may be those of a salt).

Where only a bound is given, the exact number is not on record here.

By melting point is commonly meant the temperature, or range, at which the solid turns liquid. In the case of `COC(=O)c1ccc(C(=O)Nc2cc3c4c(c2)CCCC4CCC3)cc1`, the melting point is 217 to 218 °C. The compound `CCOC(=O)CN1C(=O)C(NC(=O)Cc2ccc(Cl)cc2)N=C(c2ccccc2)c2ccccc21` (stereo not given) gave a melting point of 205 to 207 °C. Then `O=c1[nH]c2ccc(C(F)(F)F)cc2c(-c2cc(Cl)ccc2O)c1Sc1ccc(O)cc1`, with 180 to 190 °C; and `O=C1COC2(CCN(CCCC(=O)c3ccc(F)cc3)CC2)CN1`, with 117 to 118 °C. Then `COc1ccc(S(=O)(=O)Nc2cccc(C)c2NC(=O)c2ccncc2)cc1`, with 213 to 217 °C; and `Cc1ncnc(-c2ccc(Cl)cc2F)c1Cl`, with 77 to 79 °C; and `Cc1noc(NS(=O)(=O)c2ccccc2-c2ccc(-c3cocn3)cc2)c1C`, with 85 to 93 °C. Then `Cc1ccccc1-c1ccc(C(=O)N2Cc3ccc(C(=O)NCCCc4ccccc4)n3Cc3ccccc32)cc1C`, with 183 to 184 °C. The compound `CC(C)(C)c1cccc(S(=O)(=O)n2c(Cc3ccc(C(=O)O)cc3F)cc3cc(C(F)(F)F)ccc32)c1` came in with a melting point of 177 °C. `O=C(NO)C1(S(=O)(=O)c2ccc(OCC#CCN3CCOCC3)cc2)CCN(Cc2ccc(Br)cc2)CC1` gave a melting point of 94 °C. Then `Cc1c(Cc2cccc(C(F)(F)F)c2)sc2c(-c3cccc(C(=O)NCCOC(C)C)c3)cccc12`, with 121 to 122 °C. Then `COc1ccc(C(NCC(c2ccccc2)c2ccccc2)c2cccc(Nc3c(N)c(=O)c3=O)c2)cc1` (stereo not given), with 193 to 194 °C. In the case of `Cc1ccc(C)c(OCc2ccccc2C(=O)O)c1`, the melting point was 162 to 163 °C.

In turn, `Cn1c(=O)c(-c2c(Cl)cccc2Cl)cc2cnc(Nc3ccc4c(c3)OCO4)nc21` yielded a melting point of 240 to 241 °C.

`O=[N+]([O-])c1cccc2[nH]c3c(c12)CCCCCC3` registered a melting point of 189 to 191 °C. The figure for `CCCCCCCCCCCCn1nnc(C(=NOC)C(=O)Nc2c(OC)cc(OC)cc2OC)n1` is 84 to 85 °C; for `Cc1ccc2cccc(OCc3c(Cl)ccc(S(=O)(=O)N(C)Cc4cccc(C(N)=O)c4)c3Cl)c2n1` it is 208 °C. Then `O=C(C=Cc1ccco1)Nc1nnn[nH]1`, with 287 to 289 °C; and `COc1ccc(-n2nc(C(F)F)cc2-c2ccc(S(C)(=O)=O)cc2)cc1F`, with 185 to 186 °C; and `COc1nc(N)c(Cl)cc1C(=O)CCC1CCN(CC(C)(C)O)CC1`, with 108 °C. Then `CCCCC(=O)N[C@H]1CC[C@H](CCN2CCN(c3nccc4c3OCC4)CC2)CC1`, with 168 °C; and `CCN(CC)NC(C)=O`, with 47.5 to 49.5 °C. `CC(=O)N1C(C(=O)NCCO[N+](=O)[O-])CSC1c1ccccc1C(=O)O` (stereo not given) registered a melting point of 148 to 150 °C.

As to `CCNC(=O)c1cnn(C)c1C(=O)Nc1ccn2nc(-c3ccccc3)nc2c1`, the melting point was in the range of 253 to 255 °C. `Cc1oc(-c2ccccc2)nc1CCOc1ccc(CC(C(=O)O)c2nc(-c3ccccc3)oc2C)cc1` (stereo not given): the melting point was found to be 120 °C. The figure for `CCN(C(=O)n1oc(C)c(Cl)c1=O)c1ccc(Cl)cc1Cl` is 101 to 102 °C; for `Cc1nn(-c2cc(OC(C)C)c(Cl)cc2F)c(=O)[nH]1` it is 120 to 124 °C; for `Cc1c(OCCBr)ccc2c(=O)cc(N3CCOCC3)oc12` it is 210 to 212 °C. Then `CCN1CCN(c2cc3c(cc2F)c(=O)c(C(=O)O)cn3CC)CC1C` (stereo not given), with 203 to 205 °C.

Regarding `COc1cccc2c3c(c(=O)[nH]c12)CCN3c1ccccc1C`, the melting point was in the range of 166 to 168 °C. The figure for `COc1ccc(N2CC(=O)N(CCN)C2=O)cc1OC` is 162 to 164 °C; for `COc1cc(O)c(C(=O)CCc2ccc3occc3c2)cc1C(O)C1OC(C(=O)C(C)C(=O)O)C(O)C(O)C1O` (stereo not given) it is 113 to 114 °C; for `CC1(c2ccc3c(c2)CC(=O)N3CC(F)(F)F)OCCO1` it is 87 to 89 °C. The figure for `CSc1ncc(F)c(N)n1` is 114 to 115 °C; for `CNc1nc(N)nc(NC2CC2)n1` it is 159 to 162 °C.

`COc1nc2cc(Cl)c(Cl)c(CS(C)(=O)=O)c2nc1OC` came in with a melting point of 161 to 163 °C. Then `CCOc1ccc(Nc2ccc(Nc3ccc(OCC)cc3)c3c2C(=O)c2c(Nc4ccc(OCC)cc4)ccc(Nc4ccc(OCC)cc4)c2C3=O)cc1`, with 173 to 175 °C; and `Cc1cn(C(c2ccccc2)(c2ccccc2)c2ccccc2)cn1`, with 214 to 216 °C.

Take `Cc1sc2c(c1C(=O)CCN1CCN(c3nsc4ccccc34)CC1)NC(=O)CCC2`: the melting point lay within 146 to 147 °C. In turn, `CN(C)C1=NS(=O)(=O)N=C1N[C@@H]1c2cc(OC(F)(F)F)ccc2OC(C)(C)[C@H]1O` showed a melting point of 135 to 140 °C. Then `Nc1ccc(-c2nc3c(F)cccc3s2)cc1`, with 219 to 221 °C. The figure for `CCOC(=O)c1ncn(-c2nncs2)c1Cl` is 184 to 185 °C; for `Cc1cc(C(=O)N2Cc3ccc(C(=O)N(CCO)CCO)n3Cc3ccccc32)ccc1-c1ccccc1C(F)(F)F` it is 127 to 130 °C; for `COCCCOc1ccc(CCCOC(=O)NS(=O)(=O)NCCOC(C)C)c(Oc2ncc(C(F)(F)F)cc2Cl)c1` it is 67.4 to 68 °C.

For the compound `CCc1ccccc1NC(=O)c1ccc(CN2C(=O)C3(COc4cc5c(cc43)CCO5)c3ccccc32)cc1` (stereo not given), the melting point was 203 to 204 °C. `COCc1nccn1CC(=O)c1ccc(-c2ccc(N3C[C@H](Cn4ccnn4)OC3=O)cc2F)cn1` came in with a melting point of 78 to 80 °C.

`C[C@H]1C[C@H](O)CN1c1ccc(C#N)c2ccccc12` returned a melting point of 149 to 151 °C.

In turn, `CCOC(=O)c1c(C(F)(F)F)nc(C(F)F)c(C(=O)OC)c1N(C)C1CC1` registered a melting point of 37 to 40 °C. In turn, `COc1ccc2nc(Cl)c(C#N)cc2c1` showed a melting point of 201 to 202 °C. The figure for `O=C(NNC(=O)c1cccc([N+](=O)[O-])c1)c1cccc([N+](=O)[O-])c1` is 245 °C. In turn, `CC1(C)CC(=O)C(C(=O)Nc2ccc(Cl)c(C(F)(F)F)c2)C(=O)O1` (stereo not given) came in with a melting point of 156 °C. In turn, `CC(=O)Oc1cc2nc[nH]c(=O)c2cc1OC(C)=O` gave a melting point of 235 to 237 °C. The figure for `Cc1c[nH]c2ccc(Nc3ncnc4cc(-c5ccccc5)sc34)cc12` is 221 to 223 °C; for `COC(=O)C1C=CCn2c(=O)n(CSC(C)=O)c(=O)n21` (stereo not given) it is 110 to 111 °C; for `O=C(CC1CCOC1=O)c1ccccc1` (stereo not given) it is 77 to 79 °C. The figure for `CCN(CC)C(=O)CCc1nc(-c2ccccc2)nc2ccc(OC)cc12` is 144 °C. The compound `CC1=C(S(C)(=O)=O)C(c2ccc(Cl)c(Cl)c2)C2=C(CCC2=O)N1` (stereo not given) registered a melting point of 218 to 220 °C.

`Cc1ncc(C(=O)Nc2ccc(-n3nc(C(F)(F)F)cc3C3CC3)cc2)c(C)n1` had a melting point of 145 to 147 °C. The figure for `COc1ccc2cc([C@H](C)C(=O)OCC(=O)OC(C)(C)C)ccc2c1` is 85 to 86 °C; for `CC(=O)N1CCC(C(=O)Nc2ccccc2Oc2ccc(Cl)cc2Cl)CC1` it is 194 to 196 °C.

Consider `CCCCCCCCCCCCCC(=O)Oc1ccc([N+](=O)[O-])cc1OC(=O)CCCCCCCCCCCCC`, for which the melting point was in the range of 58 to 60 °C. The figure for `CC(=O)OC1C(C)OC(n2c(Br)nc3cc(Cl)c(Cl)cc32)C1OC(C)=O` (stereo not given) is 145 to 148 °C. Then `O=C1OCc2cc(CO)ccc21`, with 126 °C; and `CC(=O)N(C(C)=O)c1c(I)c(C(=O)Cl)c(I)c(N(C(C)=O)C(C)=O)c1I`, with 231 to 232 °C. The figure for `CN1CCN(C(=O)Nc2ccccc2NC(=O)c2cc(C(C)(C)C)c(O)c(C(C)(C)C)c2)CC1` is 160 to 161 °C; for `N#Cc1ccc(Cl)cc1OC[C@@H]1CO1` it is 85 to 86 °C.

The compound `COc1cccc(CN2CCC(n3c(C)c(-c4ccccc4)[nH]c3=O)CC2)c1` yielded a melting point of 227 to 228 °C. The figure for `CSc1ccc(C2C(=O)c3ccccc3C2=O)cc1` is 153 to 155 °C; for `COc1ccc(-c2coc3ccc(-c4nnc(SCc5cccc(Cl)c5)o4)cc23)cc1` it is 155 to 156 °C; for `NS(=O)(=O)OCCCN1CCC(C(O)(c2ccc(F)cc2)c2ccc(F)cc2)CC1` it is 78 to 81 °C. The figure for `N#Cc1nc(Cl)ccc1N` is 162 to 165 °C.

As to `COc1ccccc1C(=O)c1cccc(C(=O)O)c1`, the melting point lay in the range of 170 to 172 °C. The figure for `CCc1c2c(nc3ccccc13)-c1cc3c(c(=O)n1C2)COC(=O)CC3(O)CC` (stereo not given) is greater than 280 °C; for `CCC1C(=O)Nc2cccc3c2N1C(=O)C3c1ccccc1` (stereo not given) it is 205 to 208 °C. Then `O=C1CSC(N2CCN=C(c3ccccc3Cl)c3cc(Cl)ccc32)=N1`, with 217 to 218 °C; and `CCOC(=O)c1ccc(NC=O)c(C(=O)CCNC(=O)OC(C)(C)C)c1`, with 135 to 137 °C; and `O=c1c2ccccc2n(-c2cccc([N+](=O)[O-])c2)c2nc3ccccc3n12`, with 294 °C. Then `NC(=O)C1CCCC(C(=O)O)C1` (stereo not given), with 102 to 128 °C; and `CCC(CC)c1nn(-c2ccc(C(F)(F)F)cn2)cc1CCCOc1c(CC(=O)O)ccnc1C`, with 78 to 79 °C. With `CN(C)c1ccc(-c2cc3nccnc3[nH]2)cc1CCCO`, the melting point was 203 to 204 °C. In the case of `CCN1C(=O)C(C)(C)CCc2c1ccc(Nc1ncc(Cl)c(N[C@@H]3CCCC[C@H]3NS(C)(=O)=O)n1)c2OC`, the melting point lay in the range of 123 to 126 °C. The figure for `CS(=O)(=O)c1ccc(-c2c(-c3ccc(F)cc3)c(=O)n3n2Cc2c(Cl)cccc2-3)cc1` is 237 to 240 °C. On to `CC12CCC3C(CCC4=CC(=O)CCC43C=O)C1CCC2=O` (stereo not given), for which the melting point fell in the range of 126 to 129 °C. Then `Cc1ncc(-c2ccccc2)c(-c2ccc3c(c2)NC(=O)CO3)n1`, with 229 °C; and `Cc1cc(C)c(-n2ccc3c(Cl)nn(C)c(=O)c32)c(C)c1`, with 170 to 171 °C.
